Like-named read-outs stand apart in the source and are kept apart here.
Columns and labels:
T-cell = assay: CD25 cell surface staining on T-cells stimulated with anti-CD3 antibody alone (Biological Example 2); assay type: cell-based, human; settings: T-cell; for fold induction at 8 µM: 8 μM Cbl-b inhibitor
Cbl-b (residues 36-427) = Cbl-b (residues 36-427) (Homo sapiens, UniProt Q13191); assay: Cbl-b binding assay (SPR, Biacore T200); settings: 20° C., 1:1 binding model
Method in brief: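 NeutrAvidin capture chip, 20° C; 50 s injections at 50 μl/min, 90-180 s dissociation; 0.3 M NaCl regeneration. Asterisked column: 50 mM NaCl buffer and 30 nM Src kinase in place of 100 mM NaCl and 60 nM Src kinase. 1:1 fit.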

[1] = fold change over baseline, 1 μM Cbl-b inhibitor, primary human total T-cells, read-out: CD25 staining Anti-CD3 stimulation
[2] = fold change over baseline, primary human total T-cells, read-out: CD25 staining Anti-CD3 stimulation
[3] = Homo sapiens, 1 μM Cbl-b inhibitor, fold change over baseline (anti-CD3/anti-CD28 stimulated T-cells without inhibitor), read-out: CD25 staining Anti-CD3 stimulation

Chain of Cbl-b (residues 36-427) (Q13191 36-427): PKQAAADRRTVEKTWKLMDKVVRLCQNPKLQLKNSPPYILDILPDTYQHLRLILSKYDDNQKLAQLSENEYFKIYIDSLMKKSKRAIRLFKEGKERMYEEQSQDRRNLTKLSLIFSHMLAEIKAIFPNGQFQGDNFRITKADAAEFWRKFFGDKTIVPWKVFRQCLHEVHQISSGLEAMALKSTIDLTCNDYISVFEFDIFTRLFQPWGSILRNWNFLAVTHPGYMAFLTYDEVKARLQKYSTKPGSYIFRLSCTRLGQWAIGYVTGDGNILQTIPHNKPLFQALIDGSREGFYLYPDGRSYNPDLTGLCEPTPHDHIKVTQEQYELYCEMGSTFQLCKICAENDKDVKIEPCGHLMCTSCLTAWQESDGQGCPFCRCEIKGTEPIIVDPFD

Compound `C[C@H](Cc1nncn1C)c1cccc(NC(=O)c2cc(O[C@@H]3CC[C@@H](O)C3)ccn2)c1` (relative stereo) [Compound 205, trans-4-(3-hydroxycyclopentyloxy)-N-(3-((R)-1-(4-methyl-4H-1,2,4-triazol-3-yl)propan-2-yl)phenyl)picolinamide] has a fold induction at 1 µM (T-cell; [1]) of 0.801 to 1, a fold induction at 8 µM (T-cell; [2]) of over 1 and a Kd (Cbl-b (residues 36-427)) of 100 to 300 nM.
`C[C@H](c1cc2c(c(C(F)(F)F)c1)CN(c1cccc(C3([C@H](F)c4nncn4C)COC3)c1)C2=O)N1CCC2(CC2)C1` (stereo in doubt) [Example 575, 6-((R)-1-(5-Azaspiro[2.4]heptan-5-yl)ethyl)-2-(3-(3-((S)-fluoro(4-methyl-4H-1,2,4-triazol-3-yl)methyl)oxetan-3-yl)phenyl)-4-(trifluoromethyl)isoindolin-1-one] was tested, and the fold induction at 1 µM (T-cell; [3]) was over 1.
Compound `Cc1ccc(C(=O)Nc2cccc([C@H](C)Sc3nncn3C)c2)nc1C1CC1` [Compound 54, (S)-6-cyclopropyl-5-methyl-N-(3-(1-((4-methyl-4H-1,2,4-triazol-3-yl)thio)ethyl)phenyl)picolinamide] has a fold induction at 1 µM (T-cell; [1]) of 0.601 to 0.8, a fold induction at 8 µM (T-cell; [2]) of 0.801 to 1 and a Kd (Cbl-b (residues 36-427)) of 100 to 300 nM.
With `Cc1cc(C(=O)Nc2cccc([C@H](C)Sc3nncn3C)c2)nc(C(F)(F)F)c1` [Compound 65, (S)-4-methyl-N-(3-(1-((4-methyl-4H-1,2,4-triazol-3-yl)thio)ethyl)phenyl)-6-(trifluoromethyl)picolinamide] the fold induction at 1 µM (T-cell; [1]) was 0.601 to 0.8, the fold induction at 8 µM (T-cell; [2]) was over 1 and the Kd (Cbl-b (residues 36-427)) was 100 to 300 nM.
`C[C@H](Sc1nncn1C)c1cccc(NC(=O)c2cc(C3CC3)cc(C(F)(F)F)n2)c1` [Compound 67, (S)-4-cyclopropyl-N-(3-(1-((4-methyl-4H-1,2,4-triazol-3-yl)thio)ethyl)phenyl)-6-(trifluoromethyl)picolinamide] gave a fold induction at 1 µM (T-cell; [1]) of 0.801 to 1, a fold induction at 8 µM (T-cell; [2]) of over 1 and a Kd (Cbl-b (residues 36-427)) of 100 to 300 nM.
Compound `C[C@H](Sc1nncn1C)c1cccc(NC(=O)c2cccc(C3CC3)n2)c1` [Compound 72, (S)-6-cyclopropyl-N-(3-(1-((4-methyl-4H-1,2,4-triazol-3-yl)thio)ethyl)phenyl)picolinamide] has a fold induction at 1 µM (T-cell; [1]) of under 0.6, a fold induction at 8 µM (T-cell; [2]) of 0.801 to 1 and a Kd (Cbl-b (residues 36-427)) of 100 to 300 nM.
Work on `C[C@H](Sc1nncn1C)c1cccc(NC(=O)c2ccnc(C3CC3)n2)c1` [Compound 76, 2-cyclopropyl-A-[3-[(1S)-1-[(4-methyl-1,2,4-triazol-3-yl)sulfanyl]ethyl]phenyl]pyrimidine-4-carboxamide] yielded a fold induction at 1 µM (T-cell; [1]) of 0.601 to 0.8, a fold induction at 8 µM (T-cell; [2]) of over 1 and a Kd (Cbl-b (residues 36-427)) of 100 to 300 nM.
With `C[C@H](Sc1nncn1C)c1cccc(NC(=O)c2ccc(CO)c(C3CC3)n2)c1` [Compound 89, 6-cyclopropyl-5-(hydroxymethyl)-N-[3-[(1S)-1-[(4-methyl-1,2,4-triazol-3-yl)sulfanyl]ethyl]phenyl]pyridine-2-carboxamide] the fold induction at 1 µM (T-cell; [1]) was under 0.6, the fold induction at 8 µM (T-cell; [2]) was 0.801 to 1 and the Kd (Cbl-b (residues 36-427)) was 100 to 300 nM.
`C[C@H](Sc1nncn1C)c1cccc(NC(=O)c2ccc(F)c(C3CC3)n2)c1` [Compound 91, 6-Cyclopropyl-5-fluoro-N-[3-[(1S)-1-[(4-methyl-1,2,4-triazol-3-yl)sulfanyl]ethyl]phenyl]pyridine-2-carboxamide] showed a fold induction at 1 µM (T-cell; [1]) of 0.601 to 0.8, a fold induction at 8 µM (T-cell; [2]) of over 1 and a Kd (Cbl-b (residues 36-427)) of 100 to 300 nM.
With `C[C@H](Sc1nncn1C)c1cccc(NC(=O)c2ccc(C#N)c(C3CC3)n2)c1` [Compound 92, 5-cyano-6-cyclopropyl-N-[3-[(1S)-1-[(4-methyl-1,2,4-triazol-3-yl)sulfanyl]ethyl]phenyl]pyridine-2-carboxamide] the fold induction at 1 µM (T-cell; [1]) was 0.601 to 0.8, the fold induction at 8 µM (T-cell; [2]) was over 1 and the Kd (Cbl-b (residues 36-427)) was 100 to 300 nM.
With `COc1ccc(C(=O)Nc2cccc([C@H](C)Sc3nncn3C)c2)nc1C1CC1` [Compound 93, 6-cyclopropyl-5-methoxy-N-[3-[(1S)-1-[(4-methyl-1,2,4-triazol-3-yl)sulfanyl]ethyl]phenyl]pyridine-2-carboxamide] the fold induction at 1 µM (T-cell; [1]) was 0.601 to 0.8, the fold induction at 8 µM (T-cell; [2]) was over 1 and the Kd (Cbl-b (residues 36-427)) was 100 to 300 nM.
`C[C@H](Cc1nncn1C)c1cccc(NC(=O)c2cc(C3CC3)cc(C(F)(F)F)n2)c1` [Compound 191, (R)-4-cyclopropyl-N-(3-(1-(4-methyl-4H-1,2,4-triazol-3-yl)propan-2-yl)phenyl)-6-(trifluoromethyl)picolinamide] showed a fold induction at 1 µM (T-cell; [1]) of over 1, a fold induction at 8 µM (T-cell; [2]) of over 1 and a Kd (Cbl-b (residues 36-427)) of under 100 nM.
Compound `C[C@H](Cc1nncn1C)c1cccc(NC(=O)c2cc(C3CC3)nc(C3CC3)n2)c1` [Compound 193, (R)-2,6-dicyclopropyl-N-(3-(1-(4-methyl-4H-1,2,4-triazol-3-yl)propan-2-yl)phenyl)pyrimidine-4-carboxamide] has a fold induction at 1 µM (T-cell; [1]) of over 1, a fold induction at 8 µM (T-cell; [2]) of over 1 and a Kd (Cbl-b (residues 36-427)) of under 100 nM.
For `Cc1cc(C(=O)Nc2cccc([C@H](C)Cc3nncn3C)c2)nc(C(F)(F)F)n1` [Compound 194, (R)-6-methyl-N-(3-(1-(4-methyl-4H-1,2,4-triazol-3-yl)propan-2-yl)phenyl)-2-(trifluoromethyl)pyrimidine-4-carboxamide], the fold induction at 1 µM (T-cell; [1]) was 0.801 to 1, the fold induction at 8 µM (T-cell; [2]) was over 1 and the Kd (Cbl-b (residues 36-427)) was 100 to 300 nM.
In the case of `C[C@H](Cc1nncn1C)c1cccc(NC(=O)c2nc3c(C(F)(F)F)cccc3[nH]2)c1` [Compound 196, N-[3-[(1R)-1-methyl-2-(4-methyl-1,2,4-triazol-3-yl)ethyl]phenyl]-4-(trifluoromethyl)-1H-benzimidazole-2-carboxamide], the fold induction at 1 µM (T-cell; [1]) is reported as over 1, the fold induction at 8 µM (T-cell; [2]) is reported as over 1 and the Kd (Cbl-b (residues 36-427)) is reported as 100 to 300 nM.
For `C[C@H](Cc1nncn1C)c1cccc(NC(=O)c2ccnc(C3CC3)n2)c1` [Compound 199, (R)-2-cyclopropyl-N-(3-(1-(4-methyl-4H-1,2,4-triazol-3-yl)propan-2-yl)phenyl)pyrimidine-4-carboxamide], the fold induction at 1 µM (T-cell; [1]) was over 1, the fold induction at 8 µM (T-cell; [2]) was over 1 and the Kd (Cbl-b (residues 36-427)) was 100 to 300 nM.
`C[C@H](Cc1nncn1C)c1cccc(NC(=O)c2ccc(CO)c(C3CC3)n2)c1` [Compound 203, 6-cyclopropyl-5-(hydroxymethyl)-N-[3-[(2R)-1-(4-methyl-4H-1,2,4-triazol-3-yl)propan-2-yl]phenyl]pyridine-2-carboxamide] showed a fold induction at 1 µM (T-cell; [1]) of over 1, a fold induction at 8 µM (T-cell; [2]) of over 1 and a Kd (Cbl-b (residues 36-427)) of under 100 nM.
With `CC(=O)N1CCN(c2ccc3cnc(C(=O)Nc4cccc([C@H](C)Cc5nncn5C)c4)cc3c2)CC1` [Compound 211, (R)-6-(4-acetylpiperazin-1-yl)-N-(3-(1-(4-methyl-4H-1,2,4-triazol-3-yl)propan-2-yl)phenyl)isoquinoline-3-carboxamide 2,2,2-trifluoroacetate] the fold induction at 1 µM (T-cell; [1]) was 0.601 to 0.8, the fold induction at 8 µM (T-cell; [2]) was over 1 and the Kd (Cbl-b (residues 36-427)) was 100 to 300 nM.
`C[C@H](Cc1nncn1C)c1cccc(NC(=O)c2cc(C(=O)N3CC[C@H](O)C3)cc(C(F)(F)F)n2)c1` [Compound 220, 4-((S)-3-hydroxypyrrolidine-1-carbonyl)-N-(3-((R)-1-(4-methyl-4H-1,2,4-triazol-3-yl)propan-2-yl)phenyl)-6-(trifluoromethyl)picolinamide] was tested, and the fold induction at 1 µM (T-cell; [1]) was over 1, the fold induction at 8 µM (T-cell; [2]) was over 1 and the Kd (Cbl-b (residues 36-427)) was under 100 nM.
`CN1CC2CCC(C1)N2c1cc2c(c(C(F)(F)F)c1)CN(c1cccc(C3(Cc4nncn4C)COC3)c1)C2=O` [Compound 386, 2-(3-(3-((4-Methyl-4H-1,2,4-triazol-3-yl)methyl)oxetan-3-yl)phenyl)-6-(3-methyl-3,8-diazabicyclo[3.2.1]octan-8-yl)-4-(trifluoromethyl)isoindolin-1-one] showed a fold induction at 1 µM (T-cell; Homo sapiens, read-out: CD25 staining, Anti-CD3 stimulation, fold change over baseline) of over 1.
With `Cn1cnnc1C(F)(F)[C@](C)(F)c1cccc(N2Cc3c(cc(CN4CC[C@H](F)C4)cc3C(F)(F)F)C2=O)c1` [Compound 447, 6-(((S)-3-fluoropyrrolidin-1-yl)methyl)-2-(3-((R)-1,1,2-trifluoro-1-(4-methyl-4H-1,2,4-triazol-3-yl)propan-2-yl)phenyl)-4-(trifluoromethyl)isoindolin-1-one] the Kd (Cbl-b (residues 36-427)) was under 100 nM.
In the case of `Cn1cnnc1C(F)(F)[C@](C)(F)c1cccc(N2Cc3c(cc(CN4CCC(F)(F)C4)cc3C(F)(F)F)C2=O)c1` [Compound 448, (R)-6-((3,3-difluoropyrrolidin-1-yl)methyl)-2-(3-(1,1,2-trifluoro-1-(4-methyl-4H-1,2,4-triazol-3-yl)propan-2-yl)phenyl)-4-(trifluoromethyl)isoindolin-1-one], the Kd (Cbl-b (residues 36-427)) is reported as under 100 nM.
With `Cn1cnnc1CC1(c2cccc(NC(=O)c3cc(CN4CC[C@H](F)C4)cc(C4CC4)n3)c2)COC1` [Compound 496, 6-cyclopropyl-4-{[(3S)-3-fluoropyrrolidin-1-yl]methyl}-N-(3-{3-[(4-methyl-1,2,4-triazol-3-yl)methyl]oxetan-3-yl}phenyl)pyridine-2-carboxamide] the Kd (Cbl-b (residues 36-427)) was under 100 nM.
In the case of `C[C@@H](c1cc2c(c(C(F)(F)F)c1)CN(c1cccc(C3(Cc4nncn4C)COC3)c1)C2=O)N1CCC(C)(F)CC1` [Example 553a, (S)-6-(1-(4-fluoro-4-methylpiperidin-1-yl)ethyl)-2-(3-(3-((4-methyl-4H-1,2,4-triazol-3-yl)methyl)oxetan-3-yl)phenyl)-4-(trifluoromethyl)isoindolin-1-one], the Kd (Cbl-b (residues 36-427)) is reported as under 100 nM.
`C[C@@H]1CN(Cc2cc3c(c(C(F)(F)F)c2)CN(c2cccc(C4(Cc5nncn5C)COC4)c2)C3=O)CCO1` [Example 663b, (R)-2-(3-(3-((4-methyl-4H-1,2,4-triazol-3-yl)methyl)oxetan-3-yl)phenyl)-6-((2-methylmorpholino)methyl)-4-(trifluoromethyl)isoindolin-1-one] gave a fold induction at 1 µM (T-cell; [3]) of over 1.

Source: US20220324835A1 (Nurix Therapeutics, Inc., priority 2018, published 2022)
